Measured values: PMC5519634, “Effects of 4(1H)-quinolinone derivative, a novel non-nucleotide allosteric purinergic P2Y2 agonist, on cardiomyocytes in neonatal rats” (Scientific Reports, 2017)
Blank lines part the entries; values can stand above or below the compound they belong to.

Experiments:
[1] = system: empty vector-transfected parental 1321N1 cells; experiment: Ca2+ mobilization in empty vector-transfected parental 1321N1 cells; format: cell-based, human; details: 10 μM; data not shown
[2] = system: Nr4a1, Nr4a2, Nr4a3, c-fos mRNA in NRCMs; experiment: mRNA expression analysis of Nr4a1, Nr4a2, Nr4a3 and c-fos in NRCMs; format: cell-based, rat; details: for induction of Nr4a1 mRNA at 2 h versus isoproterenol alone: 30 μM Compound 89 or 100 μM ATP in the presence of 10 μM isoproterenol
Method: Neonatal rat cardiomyocytes were seeded in a collagen I-coated 96-well plate, then cultured and maintained for a week before the ligand stimulation assay. […] After stimulation, cDNA samples were synthesized from lysates using TaqMan Gene Expression Cells-to-Ct kits (Thermo Fisher Scientific) according to the manufacturer’s instructions, followed by quantitative real-time polymerase chain reaction analysis using a Prism 7900HT sequence detector (Thermo Fisher Scientific). Thermal cycling parameters were 2 min at 50 °C and 10 min at 95 °C, followed by 40 cycles at 95 °C for 15 sec and 60 °C for 1 min. The mRNA levels were analysed with the comparative Ct method (2^−ΔΔCt) using Rplp0 as the housekeeping gene. The TaqMan Gene Expression assays (Thermo Fisher Scientific) used herein were as follows: Rn01533237_m1 (Nr4a1), Rn00570936_m1 (Nr4a2), Rn01354012_m1 (Nr4a3), Rn02396759_m1 (c-fos), and Rn03302271_gH (Rplp0).

[3] = system: neonatal rat cardiomyocytes (NRCMs); experiment: Isoproterenol-induced cardiac hypertrophy in NRCMs; format: cell-based; details: 10 μM isoproterenol
Method: Neonatal rat cardiomyocytes were seeded in a 96-well collagen I plate at a density of 5000 cells/well. They were incubated overnight and then transferred to a serum-free medium for one day. Next, the cells were treated with the indicated concentrations of compounds and 10 μM isoproterenol, and then incubated for 2 days. To quantify cardiomyocyte hypertrophy via filamentous actin staining, NRCMs were fixed with 4% paraformaldehyde (Wako) and permeabilized with 0.1% Triton X-100 (MP Biomedicals, France), followed by blocking with 1% bovine serum albumin (Wako) and staining with 2 μM phalloidin–fluorescein isothiocyanate (phalloidin-FITC; Sigma-Aldrich, Japan) and 10 μM Hoechst 33258 (Dojindo). Quantification of FITC-fluorescence intensity and cell number was performed using an IN Cell Analyzer 6000 (GE Healthcare Japan). The signals from obtained images were quantitated by means of a customized image analysis algorithm using the IN Cell Developer Toolbox (GE Healthcare Japan). Hypertrophic scores were calculated as the product of FITC-fluorescence intensity and cell area per cell as programmed by GE Healthcare technical support experts.

[4] = molecular target: T1, P2Y2 in neonatal rat cardiomyocytes (NRCMs) (Rattus norvegicus, UniProt P41232); experiment: cell-based
T1 sequence (P41232 whole entry): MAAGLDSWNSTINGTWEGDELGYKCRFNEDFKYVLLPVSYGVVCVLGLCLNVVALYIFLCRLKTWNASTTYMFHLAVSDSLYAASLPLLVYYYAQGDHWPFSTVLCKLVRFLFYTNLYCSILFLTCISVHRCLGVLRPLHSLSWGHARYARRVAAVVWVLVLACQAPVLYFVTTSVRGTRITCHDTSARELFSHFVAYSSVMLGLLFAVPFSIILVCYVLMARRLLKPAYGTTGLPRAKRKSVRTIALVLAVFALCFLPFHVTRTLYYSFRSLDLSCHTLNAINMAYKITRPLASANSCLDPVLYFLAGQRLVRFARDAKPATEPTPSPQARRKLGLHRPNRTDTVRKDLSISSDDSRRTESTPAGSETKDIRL

mouse P2Y2 receptors = molecular target: T2, mouse P2Y2 receptors (Mus musculus, UniProt P35383); experiment: FLIPR Ca2+ mobilization assay in mP2Y2-1321N1 cells; format: cell-based
T2 construct: expressed in transfected cells
T2 sequence (P35383 whole entry): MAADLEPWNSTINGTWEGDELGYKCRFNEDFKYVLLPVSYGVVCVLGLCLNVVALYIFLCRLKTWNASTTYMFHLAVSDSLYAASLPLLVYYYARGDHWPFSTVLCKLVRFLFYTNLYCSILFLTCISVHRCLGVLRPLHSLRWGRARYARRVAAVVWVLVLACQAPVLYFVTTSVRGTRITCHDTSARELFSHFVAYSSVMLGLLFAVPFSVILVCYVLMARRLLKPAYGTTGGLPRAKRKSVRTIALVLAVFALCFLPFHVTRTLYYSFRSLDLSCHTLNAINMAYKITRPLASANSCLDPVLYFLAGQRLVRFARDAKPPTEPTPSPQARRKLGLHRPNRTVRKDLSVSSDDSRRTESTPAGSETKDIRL

human P2Y1 receptor = molecular target: T3, human P2Y1 receptor (Homo sapiens, UniProt P47900); experiment: FLIPR Ca2+ mobilization assay in transiently hP2Y1-expressing 1321N1 cells; format: cell-based; details: at up to 30 µM
T3 construct: expressed in transfected cells; host or cells: 1321N1 human astrocytoma cells, pcDNA3.1(+) plasmid, transient
T3 sequence (P47900 whole entry): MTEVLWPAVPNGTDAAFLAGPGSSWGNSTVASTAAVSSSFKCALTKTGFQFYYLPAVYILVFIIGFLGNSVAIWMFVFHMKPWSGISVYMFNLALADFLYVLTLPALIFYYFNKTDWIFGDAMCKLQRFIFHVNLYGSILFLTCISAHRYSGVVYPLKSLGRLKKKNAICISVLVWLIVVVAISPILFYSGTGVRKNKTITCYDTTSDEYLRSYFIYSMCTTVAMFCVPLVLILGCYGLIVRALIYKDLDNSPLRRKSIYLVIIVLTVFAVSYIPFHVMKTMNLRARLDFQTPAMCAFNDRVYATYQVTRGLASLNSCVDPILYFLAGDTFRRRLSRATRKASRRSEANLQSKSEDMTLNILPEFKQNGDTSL

human P2Y4 receptor = molecular target: T4, human P2Y4 receptor (Homo sapiens, UniProt P51582); experiment: FLIPR Ca2+ mobilization assay in transiently hP2Y4-expressing 1321N1 cells; format: cell-based; details: at up to 30 µM
T4 construct: expressed in transfected cells; host or cells: 1321N1 human astrocytoma cells, pcDNA3.1(+) plasmid, transient
T4 sequence (P51582 whole entry): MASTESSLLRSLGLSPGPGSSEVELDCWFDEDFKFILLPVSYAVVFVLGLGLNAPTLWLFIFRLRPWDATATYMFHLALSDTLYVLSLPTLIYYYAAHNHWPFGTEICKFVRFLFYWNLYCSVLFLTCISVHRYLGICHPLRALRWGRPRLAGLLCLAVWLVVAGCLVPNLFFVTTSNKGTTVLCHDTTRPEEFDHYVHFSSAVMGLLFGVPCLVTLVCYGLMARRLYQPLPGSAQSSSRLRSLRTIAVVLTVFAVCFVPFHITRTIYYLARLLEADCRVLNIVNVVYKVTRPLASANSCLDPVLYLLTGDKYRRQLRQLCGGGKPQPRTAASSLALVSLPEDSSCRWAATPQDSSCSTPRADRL

human P2Y6 receptor = molecular target: T5, human P2Y6 receptor (Homo sapiens, UniProt Q15077); experiment: FLIPR Ca2+ mobilization assay in transiently hP2Y6-expressing 1321N1 cells; format: cell-based; details: at up to 30 µM
T5 construct: expressed in transfected cells; host or cells: 1321N1 human astrocytoma cells, pcDNA3.1(+) plasmid, transient
T5 sequence (Q15077 whole entry): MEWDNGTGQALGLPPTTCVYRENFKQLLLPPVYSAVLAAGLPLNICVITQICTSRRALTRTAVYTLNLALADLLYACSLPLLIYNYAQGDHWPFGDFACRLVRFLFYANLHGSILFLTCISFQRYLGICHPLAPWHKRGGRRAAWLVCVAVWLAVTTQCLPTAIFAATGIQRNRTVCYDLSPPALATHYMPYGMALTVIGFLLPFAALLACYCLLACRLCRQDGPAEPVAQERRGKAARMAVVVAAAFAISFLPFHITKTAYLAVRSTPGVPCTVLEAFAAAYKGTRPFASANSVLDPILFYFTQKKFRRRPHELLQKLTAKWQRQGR

human P2Y11 receptor = molecular target: T6, human P2Y11 receptor (Homo sapiens, UniProt Q96G91); experiment: FLIPR Ca2+ mobilization assay in transiently hP2Y11-expressing 1321N1 cells; format: cell-based; details: at up to 30 µM
T6 construct: expressed in transfected cells; host or cells: 1321N1 human astrocytoma cells, pcDNA3.1(+) plasmid, transient
T6 sequence (Q96G91 1-374): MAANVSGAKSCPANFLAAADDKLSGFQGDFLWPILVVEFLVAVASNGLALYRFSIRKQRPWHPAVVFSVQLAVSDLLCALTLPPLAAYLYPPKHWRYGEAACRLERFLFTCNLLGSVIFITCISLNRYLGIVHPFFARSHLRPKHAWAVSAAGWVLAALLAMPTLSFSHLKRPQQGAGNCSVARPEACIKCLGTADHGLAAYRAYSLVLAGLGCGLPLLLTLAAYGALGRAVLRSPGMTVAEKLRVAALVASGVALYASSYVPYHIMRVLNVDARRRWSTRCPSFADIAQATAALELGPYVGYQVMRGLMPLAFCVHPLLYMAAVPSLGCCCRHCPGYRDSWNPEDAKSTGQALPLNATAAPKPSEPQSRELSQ

human P2Y12 receptor = molecular target: T7, human P2Y12 receptor (Homo sapiens, UniProt Q9H244); experiment: cAMP accumulation assay in hP2Y12-1321N1 cells; format: cell-based; details: at up to 30 µM
T7 construct: expressed in transfected cells
T7 sequence (Q9H244 whole entry): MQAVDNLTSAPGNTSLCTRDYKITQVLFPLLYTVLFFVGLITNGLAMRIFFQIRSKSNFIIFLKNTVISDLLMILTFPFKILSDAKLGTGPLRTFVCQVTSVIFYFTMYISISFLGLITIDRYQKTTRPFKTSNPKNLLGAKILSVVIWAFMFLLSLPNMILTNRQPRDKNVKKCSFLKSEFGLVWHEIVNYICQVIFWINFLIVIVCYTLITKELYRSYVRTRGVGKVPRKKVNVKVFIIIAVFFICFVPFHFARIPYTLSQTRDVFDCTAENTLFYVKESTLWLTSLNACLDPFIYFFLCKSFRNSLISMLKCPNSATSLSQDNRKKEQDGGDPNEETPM

β-adrenergic receptor = experiment: cAMP signalling in parental 1321N1 cells; format: cell-based, human
[5] = molecular target: T1, P2Y2 in neonatal rat cardiomyocytes (NRCMs); details: without ATP
human P2Y2 receptors = human P2Y2 receptors (Homo sapiens, UniProt P41231); experiment: cell-based
human P2Y2 receptors, sequence (P41231 whole entry): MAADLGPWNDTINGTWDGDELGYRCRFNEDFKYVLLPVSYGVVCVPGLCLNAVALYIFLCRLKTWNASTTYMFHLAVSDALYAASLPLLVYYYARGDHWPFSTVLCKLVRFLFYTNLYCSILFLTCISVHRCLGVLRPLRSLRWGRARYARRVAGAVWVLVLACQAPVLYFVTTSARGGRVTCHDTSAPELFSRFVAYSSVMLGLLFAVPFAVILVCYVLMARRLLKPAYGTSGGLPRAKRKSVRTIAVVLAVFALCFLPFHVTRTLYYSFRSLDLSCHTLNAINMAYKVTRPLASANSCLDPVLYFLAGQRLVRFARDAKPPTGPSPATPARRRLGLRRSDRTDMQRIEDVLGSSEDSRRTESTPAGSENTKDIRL

[6] = read-out: extrapolated maximum efficacy with respect to 10 μM ATP

SMILES: Nc1ncnc2c1ncn2[C@@H]1O[C@H](COP(=O)(O)OP(=O)(O)O)[C@@H](O)[C@H]1O [ADP, adenosine-5′-diphosphate]
activity in empty vector-transfected parental 1321N1 cells [1]: lacked activity

SMILES: CC(C)NCC(O)c1ccc(O)c(O)c1 (centres unmarked) [isoproterenol, reference compound]
induction of Nr4a1 mRNA at 2 h versus vehicle ([2]; 10 μM isoproterenol, P = 5 × 10^−4): significantly induced

SMILES: Nc1ncnc2c1ncn2[C@@H]1O[C@H](COP(=O)(O)OP(=O)(O)OP(=O)(O)O)[C@@H](O)[C@H]1O [ATP, adenosine-5′-triphosphate, reference compound]
expression of all Nr4a genes ([2]; 10 μM, steadily after 30 min): increased
induction of Nr4a1 mRNA at 2 h versus isoproterenol alone [2]: did not affect induction
effect on isoproterenol-induced cardiac hypertrophy (hypertrophic score) ([3]; 10 and 100 μM, P = 0.568): no significant effects
activity in empty vector-transfected parental 1321N1 cells [1]: lacked activity
EC50 ([4]; EC50 for ATP, NRCMs, in the absence of Compound 89): 2.6 µM

SMILES: O=c1ccn([C@@H]2O[C@H](COP(=O)(O)OP(=O)(O)OP(=O)(O)O)[C@@H](O)[C@H]2O)c(=O)[nH]1 [UTP, uridine-5′-triphosphate]
activity in empty vector-transfected parental 1321N1 cells [1]: lacked activity

SMILES: O=c1ccn([C@@H]2O[C@H](COP(=O)(O)OP(=O)(O)O)[C@@H](O)[C@H]2O)c(=O)[nH]1 [UDP, uridine-5′-diphosphate]
activity in empty vector-transfected parental 1321N1 cells [1]: lacked activity

Emax (mouse P2Y2 receptors; [6]): 50.9%
EC50 (mouse P2Y2 receptors; stably-expressing mP2Y2-1321N1 cells (Fig. 1b), read-out: EC50 (potency), agonistic activity): 2.7 µM
agonistic activity against hP2Y1 (human P2Y1 receptor): lacked agonistic activity
agonistic activity against hP2Y4 (human P2Y4 receptor): lacked agonistic activity
agonistic activity against hP2Y6 (human P2Y6 receptor): lacked agonistic activity
agonistic activity against hP2Y11 (human P2Y11 receptor): lacked agonistic activity
agonistic activity against hP2Y12 (human P2Y12 receptor): lacked agonistic activity
intrinsic agonistic activity [5]: no intrinsic agonistic activity
EC50 (human P2Y2 receptors; EC50 (potency), agonistic activity, transiently-expressing hP2Y2-1321N1 cells (Fig. 1b)): 10.5 µM
EC50 (human P2Y2 receptors; EC50 for Compound 89, hP2Y2 stably-expressing 1321N1 cells, in the absence of ATP): 53.9 µM
EC50 (human P2Y2 receptors; EC50 for Compound 89, hP2Y2 stably-expressing 1321N1 cells, in the presence of 10 nM ATP): 2.5 µM
Emax (human P2Y2 receptors; [6]): 65.8%
EC50 ([4]; EC50 for Compound 89, NRCMs, in the presence of 1 μM ATP): 1.3 µM
EC50 ([4]; EC50 for Compound 89, NRCMs, in the presence of 30 μM ATP): 0.11 µM
SMILES: CCN(Cc1ccc(F)cc1)Cc1cc(=O)c2ccc(C)c(C)c2[nH]1 [Compound 89, 2-((ethyl(4-fluorobenzyl)amino)methyl)-7,8-dimethylquinolin-4(1H)-one]
induction of Nr4a1 mRNA at 2 h versus isoproterenol alone [2]: greater
effect on ATP-induced gene expression changes ([2]; co-administration at 10 and 30 μM with ATP, concentration-dependent): enhanced
changes in gene expression (Nr4a1, Nr4a2, Nr4a3, c-fos) by compound alone ([2]; without ATP, up to 90 min): did not induce any changes in gene expression
attenuation of hypertrophy after 48 h of treatment ([3]; 30 μM): Complete attenuation
effect on isoproterenol-induced cardiac hypertrophy (hypertrophic score) ([3]; 1 to 30 μM, concentration-dependent): attenuated
effect on β-adrenergic receptor-mediated cAMP signalling (β-adrenergic receptor): does not affect
